Results reported in publication PMC5218480 (PLoS ONE, 2017).

Tested on: MV-4-11 cells
Assay: Gene expression microarray analysis (Affymetrix PrimeView) and GSEA
Type: cell-based, human
Parameters: RFU PODN (11730768_x_at) / Fold change /veh PODN (11730768_x_at) / RFU LINC00158 (11744669_a_at) / Fold change /veh LINC00158 (11744669_a_at) / RFU DUSP10 (11751237_a_at) / Fold change /veh DUSP10 (11751237_a_at) / RFU ID3 (11757404_x_at) / Fold change /veh ID3 (11757404_x_at) / RFU PLEKHG5 (11737974_s_at) / Fold change /veh PLEKHG5 (11737974_s_at) / RFU LRRC4B (11730491_at) / Fold change /veh LRRC4B (11730491_at) / RFU GIMAP4 (11747438_a_at) / Fold change /veh GIMAP4 (11747438_a_at) / RFU KRT8 (11758183_x_at) / Fold change /veh KRT8 (11758183_x_at) / RFU CNN1 (11734310_a_at) / Fold change /veh CNN1 (11734310_a_at) / RFU VPS37D (11726825_at) / Fold change /veh VPS37D (11726825_at) / RFU C10orf10 (11716522_x_at) / Fold change /veh C10orf10 (11716522_x_at) / RFU KIR2DL2 /// KIR2DL4 /// KIR2DL5A /// KIR2DL5B /// KIR2DS1 /// KIR2DS2 /// KIR2DS3 /// KIR2DS4 /// KIR3DL3 /// KIR3DL3 /// KIR3DS1 (11738374_at) / Fold change /veh KIR2DL2 /// KIR2DL4 /// KIR2DL5A /// KIR2DL5B /// KIR2DS1 /// KIR2DS2 /// KIR2DS3 /// KIR2DS4 /// KIR3DL3 /// KIR3DL3 /// KIR3DS1 (11738374_at) / RFU C1QL1 (11718748_at) / Fold change /veh C1QL1 (11718748_at) / RFU TMPRSS4 (11747572_a_at) / Fold change /veh TMPRSS4 (11747572_a_at) / RFU HAMP (11756126_x_at) / Fold change /veh HAMP (11756126_x_at) / RFU RNFT2 (11725882_a_at) / Fold change /veh RNFT2 (11725882_a_at) / RFU NR4A2 (11747474_a_at) / Fold change /veh NR4A2 (11747474_a_at) / RFU ABCC12 (11746883_a_at) / Fold change /veh ABCC12 (11746883_a_at) / RFU TMEM136 (11760407_x_at) / Fold change /veh TMEM136 (11760407_x_at) / RFU CLDN22 /// WWC2 (11732394_at) / Fold change /veh CLDN22 /// WWC2 (11732394_at) / RFU HLA-DPB1 (11760878_x_at) / Fold change /veh HLA-DPB1 (11760878_x_at) / RFU SPINT1 (11716480_a_at) / Fold change /veh SPINT1 (11716480_a_at) / RFU GAP43 (11754022_s_at) / Fold change /veh GAP43 (11754022_s_at) / RFU A4GNT (11735810_at) / Fold change /veh A4GNT (11735810_at) / RFU PRB3 (11715151_x_at) / Fold change /veh PRB3 (11715151_x_at) / RFU TUBB4B (11761932_at) / Fold change /veh TUBB4B (11761932_at) / RFU CAPN14 (11732068_a_at) / Fold change /veh CAPN14 (11732068_a_at) / RFU TMCC2 (11721928_a_at) / Fold change /veh TMCC2 (11721928_a_at) / RFU IRGQ (11745062_a_at) / Fold change /veh IRGQ (11745062_a_at) / RFU FAM174B (11720279_a_at) / Fold change /veh FAM174B (11720279_a_at) / RFU TMPRSS4 (11748680_a_at) / Fold change /veh TMPRSS4 (11748680_a_at) / RFU FAM212B (11763350_a_at) / Fold change /veh FAM212B (11763350_a_at) / RFU PLEKHG5 (11743358_a_at) / Fold change /veh PLEKHG5 (11743358_a_at) / RFU ZSCAN30 (11745921_a_at) / Fold change /veh ZSCAN30 (11745921_a_at) / RFU CMKLR1 (11741424_a_at) / Fold change /veh CMKLR1 (11741424_a_at) / RFU LOC101060620 /// MAPK8IP1 (11723275_at) / Fold change /veh LOC101060620 /// MAPK8IP1 (11723275_at) / RFU SPTSSB (11747773_x_at) / Fold change /veh SPTSSB (11747773_x_at) / RFU PRSS12 (11739890_at) / Fold change /veh PRSS12 (11739890_at) / RFU BIN1 (11741810_x_at) / Fold change /veh BIN1 (11741810_x_at) / RFU WNT11 (11732464_a_at) / Fold change /veh WNT11 (11732464_a_at) / RFU C10orf10 (11716521_a_at) / Fold change /veh C10orf10 (11716521_a_at) / RFU C5orf56 (11738089_at) / Fold change /veh C5orf56 (11738089_at) / RFU CYB561 (11721691_x_at) / Fold change /veh CYB561 (11721691_x_at) / RFU ANKRD19P (11752326_a_at) / Fold change /veh ANKRD19P (11752326_a_at) / RFU OR2T12 /// OR2T33 /// OR2T8 (11738714_s_at) / Fold change /veh OR2T12 /// OR2T33 /// OR2T8 (11738714_s_at) / RFU VCAN (11748164_a_at) / Fold change /veh VCAN (11748164_a_at) / RFU JSRP1 (11732532_at) / Fold change /veh JSRP1 (11732532_at) / RFU KRTAP10-11 (11738290_x_at) / Fold change /veh KRTAP10-11 (11738290_x_at) / RFU MYO3A (11730013_a_at) / Fold change /veh MYO3A (11730013_a_at) / RFU EBF3 (11725865_a_at) / Fold change /veh EBF3 (11725865_a_at) / RFU CAMK2N1 (11719241_x_at) / Fold change /veh CAMK2N1 (11719241_x_at) / RFU C5orf56 (11738088_a_at) / Fold change /veh C5orf56 (11738088_a_at) / RFU OLFML3 (11715873_a_at) / Fold change /veh OLFML3 (11715873_a_at) / RFU LOC100653217 /// NTM (11731650_a_at) / Fold change /veh LOC100653217 /// NTM (11731650_a_at) / RFU MAPK11 (11762145_a_at) / Fold change /veh MAPK11 (11762145_a_at) / RFU FIZ1 (11724087_x_at) / Fold change /veh FIZ1 (11724087_x_at) / RFU OASL (11726364_x_at) / Fold change /veh OASL (11726364_x_at) / RFU SOX15 (11748057_x_at) / Fold change /veh SOX15 (11748057_x_at) / RFU CD79A (11719716_a_at) / Fold change /veh CD79A (11719716_a_at) / RFU HIST1H1D (11736915_at) / Fold change /veh HIST1H1D (11736915_at) / RFU CASKIN2 (11723855_a_at) / Fold change /veh CASKIN2 (11723855_a_at) / RFU LOC730098 (11760151_x_at) / Fold change /veh LOC730098 (11760151_x_at) / RFU OR4N2 (11742367_at) / Fold change /veh OR4N2 (11742367_at) / RFU PRRT2 (11749266_a_at) / Fold change /veh PRRT2 (11749266_a_at) / RFU SNX32 (11753110_a_at) / Fold change /veh SNX32 (11753110_a_at) / RFU CDHR5 (11726645_a_at) / Fold change /veh CDHR5 (11726645_a_at) / RFU RCAN1 (11760418_a_at) / Fold change /veh RCAN1 (11760418_a_at) / RFU FAM167A (11723789_a_at) / Fold change /veh FAM167A (11723789_a_at) / RFU FAM26E (11764081_at) / Fold change /veh FAM26E (11764081_at) / RFU ISYNA1 (11749810_s_at) / Fold change /veh ISYNA1 (11749810_s_at) / RFU ACY1 (11761880_at) / Fold change /veh ACY1 (11761880_at) / RFU 11764098_at / Fold change /veh 11764098_at / RFU SAMD14 (11745864_x_at) / Fold change /veh SAMD14 (11745864_x_at) / RFU NPB (11741838_a_at) / Fold change /veh NPB (11741838_a_at) / RFU TMPRSS6 (11731388_a_at) / Fold change /veh TMPRSS6 (11731388_a_at) / RFU KRTAP10-2 (11738614_at) / Fold change /veh KRTAP10-2 (11738614_at) / RFU ARHGAP8 /// PRR5-ARHGAP8 (11727945_x_at) / Fold change /veh ARHGAP8 /// PRR5-ARHGAP8 (11727945_x_at) / RFU KRTAP5-7 /// NADSYN1 (11734609_at) / Fold change /veh KRTAP5-7 /// NADSYN1 (11734609_at) / RFU RASL12 (11751679_a_at) / Fold change /veh RASL12 (11751679_a_at) / RFU CDKN2B (11736163_a_at) / Fold change /veh CDKN2B (11736163_a_at) / RFU PRF1 (11729649_at) / Fold change /veh PRF1 (11729649_at) / RFU, ZNF638 /// ZNF638-IT1 / Fold change vs veh, ZNF638 /// ZNF638-IT1 / RFU, PANK3 / Fold change vs veh, PANK3 / RFU, SH3YL1 / Fold change vs veh, SH3YL1 / RFU, ZEB2 / Fold change vs veh, ZEB2 / RFU, NRIP1 / Fold change vs veh, NRIP1 / RFU, PTTG1IP / Fold change vs veh, PTTG1IP / RFU, CAPN2 / Fold change vs veh, CAPN2 / RFU, MED14 / Fold change vs veh, MED14 / RFU, SNORA58 / Fold change vs veh, SNORA58 / RFU, C1orf63 / Fold change vs veh, C1orf63 / RFU, LRRFIP1 / Fold change vs veh, LRRFIP1 / RFU, NDUFAF7 / Fold change vs veh, NDUFAF7 / RFU, SLC12A2 / Fold change vs veh, SLC12A2 / RFU, IBTK / Fold change vs veh, IBTK / RFU, ESF1 / Fold change vs veh, ESF1 / Fold change vs veh, TMEM50B / RFU, TAOK1 / Fold change vs veh, TAOK1 / RFU, ACBD3 / Fold change vs veh, ACBD3 / RFU, TMA16 / Fold change vs veh, TMA16 / RFU, RWDD3 / Fold change vs veh, RWDD3 / RFU, BCAT1 / Fold change vs veh, BCAT1 / RFU, EDEM3 / Fold change vs veh, EDEM3 / RFU, TMEM33 / Fold change vs veh, TMEM33 / RFU, WDR75 / Fold change vs veh, WDR75 / RFU, AHCTF1 / Fold change vs veh, AHCTF1 / RFU, TFRC / Fold change vs veh, TFRC / RFU, ZDHHC17 / Fold change vs veh, ZDHHC17 / RFU, NOM1 / Fold change vs veh, NOM1 / RFU, ARL8B / Fold change vs veh, ARL8B / RFU, ZBTB11 / Fold change vs veh, ZBTB11 / RFU, TAMM41 / Fold change vs veh, TAMM41 / RFU, KIAA1704 /// LOC100996395 / Fold change vs veh, KIAA1704 /// LOC100996395 / RFU, ING1 / Fold change vs veh, ING1 / RFU, TRMT61B / Fold change vs veh, TRMT61B / RFU, FUBP3 / Fold change vs veh, FUBP3 / RFU, TP53 / Fold change vs veh, TP53 / RFU, TNKS2 / Fold change vs veh, TNKS2 / RFU, ZFP14 / Fold change vs veh, ZFP14 / RFU, ACTR2 / Fold change vs veh, ACTR2 / RFU, PPP3R1 / Fold change vs veh, PPP3R1 / RFU, PIK3R1 / Fold change vs veh, PIK3R1 / RFU, HNRNPA1 / Fold change vs veh, HNRNPA1 / RFU, RNF170 / Fold change vs veh, RNF170 / RFU, ZNF28 / Fold change vs veh, ZNF28 / RFU, RNGTT / Fold change vs veh, RNGTT / RFU, OGT / Fold change vs veh, OGT / RFU, BRD1 / Fold change vs veh, BRD1 / RFU, MARS / Fold change vs veh, MARS / RFU, ZNF655 / Fold change vs veh, ZNF655 / RFU, FAHD1 / Fold change vs veh, FAHD1 / RFU, BDP1 / Fold change vs veh, BDP1 / RFU, LRRCC1 / Fold change vs veh, LRRCC1 / RFU, ARID1A / Fold change vs veh, ARID1A / RFU, ZNF146 / Fold change vs veh, ZNF146 / RFU, ZNF330 / Fold change vs veh, ZNF330 / RFU, GPN3 / Fold change vs veh, GPN3 / RFU, C9orf123 / Fold change vs veh, C9orf123 / RFU, N4BP2L2 / Fold change vs veh, N4BP2L2 / RFU, ARFIP1 / Fold change vs veh, ARFIP1 / RFU, FAM179B / Fold change vs veh, FAM179B / RFU, BCL10 / Fold change vs veh, BCL10 / RFU, UHRF1BP1L / Fold change vs veh, UHRF1BP1L / RFU, BET1 / Fold change vs veh, BET1 / RFU, CNOT2 / Fold change vs veh, CNOT2 / RFU, ZNF268 / Fold change vs veh, ZNF268 / Fold change vs veh, ZNF507 / RFU, DGCR2 / Fold change vs veh, DGCR2 / RFU, WDSUB1 / Fold change vs veh, WDSUB1 / Fold change vs veh, HSP90B1 /// MIR3652 / RFU, ADSS / Fold change vs veh, ADSS / RFU, GK / Fold change vs veh, GK / RFU, ZNF148 / Fold change vs veh, ZNF148 / RFU, TAF9 / Fold change vs veh, TAF9 / RFU, SLC1A5 / Fold change vs veh, SLC1A5 / RFU, SLMO2 / Fold change vs veh, SLMO2 / RFU, ABCC4 / Fold change vs veh, ABCC4 / RFU, LOC101060439 /// RAP1B / Fold change vs veh, LOC101060439 /// RAP1B / RFU, RFX7 / Fold change vs veh, RFX7 / RFU, GTPBP10 / Fold change vs veh, GTPBP10 / RFU, CNEP1R1 / Fold change vs veh, CNEP1R1 / RFU, BIVM-ERCC5 /// ERCC5 / Fold change vs veh, BIVM-ERCC5 /// ERCC5 / RFU, ILF3 / Fold change vs veh, ILF3 / RFU 11762660_at / Fold change /veh 11762660_at / RFU VCAN (11757783_s_at) / Fold change /veh VCAN (11757783_s_at) / RFU DDX43 (11728927_at) / Fold change /veh DDX43 (11728927_at) / RFU KRT8 (11758188_x_at) / Fold change /veh KRT8 (11758188_x_at) / RFU NKD1 (11759106_at) / Fold change /veh NKD1 (11759106_at) / RFU SRD5A1 (11742802_a_at) / Fold change /veh SRD5A1 (11742802_a_at) / RFU TPSAB1 /// TPSB2 (11721975_s_at) / Fold change /veh TPSAB1 /// TPSB2 (11721975_s_at) / RFU GSTM3 (11746129_a_at) / Fold change /veh GSTM3 (11746129_a_at) / RFU IL23R (11737362_x_at) / Fold change /veh IL23R (11737362_x_at) / RFU TMEM51 (11727254_a_at) / Fold change /veh TMEM51 (11727254_a_at) / RFU PIWIL2 (11732686_x_at) / Fold change /veh PIWIL2 (11732686_x_at) / RFU ORM1 (11744905_x_at) / Fold change /veh ORM1 (11744905_x_at) / RFU CCDC152 (11743942_at) / Fold change /veh CCDC152 (11743942_at) / RFU ECM1 (11717891_a_at) / Fold change /veh ECM1 (11717891_a_at) / RFU IL23R (11748794_a_at) / Fold change /veh IL23R (11748794_a_at) / RFU TNFAIP8L3 (11732012_x_at) / Fold change /veh TNFAIP8L3 (11732012_x_at) / RFU MBOAT4 (11741988_at) / Fold change /veh MBOAT4 (11741988_at) / RFU 11764193_at / Fold change /veh 11764193_at / RFU TMEM53 (11763286_at) / Fold change /veh TMEM53 (11763286_at) / RFU MAGEB2 (11727129_at) / Fold change /veh MAGEB2 (11727129_at) / RFU TMEM200A (11744735_a_at) / Fold change /veh TMEM200A (11744735_a_at) / RFU CCDC152 (11751479_a_at) / Fold change /veh CCDC152 (11751479_a_at) / RFU FAM211A (11726209_a_at) / Fold change /veh FAM211A (11726209_a_at) / RFU RGS16 (11746705_a_at) / Fold change /veh RGS16 (11746705_a_at) / RFU VCAN (11755009_s_at) / Fold change /veh VCAN (11755009_s_at) / RFU RHOB (11743442_s_at) / Fold change /veh RHOB (11743442_s_at) / RFU RGS16 (11720943_a_at) / Fold change /veh RGS16 (11720943_a_at) / RFU RGS16 (11720944_at) / Fold change /veh RGS16 (11720944_at) / RFU, VPS4B / Fold change vs veh, VPS4B / RFU, CREB1 / Fold change vs veh, CREB1 / RFU, DNAJC13 / Fold change vs veh, DNAJC13 / RFU, GNAQ / Fold change vs veh, GNAQ / RFU, CDK5R1 / Fold change vs veh, CDK5R1 / RFU, ZRANB3 / Fold change vs veh, ZRANB3 / RFU, CUL4A / Fold change vs veh, CUL4A / RFU, CCNY / Fold change vs veh, CCNY / RFU, UFL1 / Fold change vs veh, UFL1 / RFU, COG3 / Fold change vs veh, COG3 / RFU, DIAPH2 / Fold change vs veh, DIAPH2 / RFU, SKA2 / Fold change vs veh, SKA2 / RFU, AFF3 / Fold change vs veh, AFF3 / RFU, LMF1 / Fold change vs veh, LMF1 / RFU, IPO11 / Fold change vs veh, IPO11 / RFU, DFFB / Fold change vs veh, DFFB / RFU, FOXP1 / Fold change vs veh, FOXP1 / RFU, CARD8 / Fold change vs veh, CARD8 / RFU, STRN3 / Fold change vs veh, STRN3 / RFU, ADK / Fold change vs veh, ADK / RFU, RASSF2 / Fold change vs veh, RASSF2 / RFU, WIPF1 / Fold change vs veh, WIPF1 / RFU, LARP1B / Fold change vs veh, LARP1B / RFU, RASA1 / Fold change vs veh, RASA1 / RFU, RB1 / Fold change vs veh, RB1 / RFU, PPFIA1 / Fold change vs veh, PPFIA1 / RFU, MAT2A / Fold change vs veh, MAT2A / RFU, CCT5 / Fold change vs veh, CCT5 / RFU, WDR92 / Fold change vs veh, WDR92 / RFU, CUX1 / Fold change vs veh, CUX1 / RFU, TTC7A / Fold change vs veh, TTC7A / RFU, TMEM135 / Fold change vs veh, TMEM135 / RFU, DEPTOR / Fold change vs veh, DEPTOR / RFU, CPM / Fold change vs veh, CPM / RFU, DNAJB6 / Fold change vs veh, DNAJB6 / RFU, CACNA2D3 / Fold change vs veh, CACNA2D3 / RFU, DTX4 / Fold change vs veh, DTX4 / RFU, TFCP2 / Fold change vs veh, TFCP2 / RFU, GMCL1 /// GMCL1P1 / Fold change vs veh, GMCL1 /// GMCL1P1 / RFU, AEBP2 / Fold change vs veh, AEBP2 / RFU, SNHG1 /// SNORD22 /// SNORD25 /// SNORD26 /// SNORD27 /// SNORD28 /// SNORD29 /// SNORD31 / Fold change vs veh, SNHG1 /// SNORD22 /// SNORD25 /// SNORD26 /// SNORD27 /// SNORD28 /// SNORD29 /// SNORD31 / Fold change (Aza/veh), C12orf56 (ProbeSet 11735607_a_at) / Fold change (ACY-1035/veh), C12orf56 (ProbeSet 11735607_a_at) / Fold change (Aza/veh), FGFR1OP (ProbeSet 11751329_s_at) / Fold change (ACY-1035/veh), FGFR1OP (ProbeSet 11751329_s_at) / Fold change (Aza/veh), VPS36 (ProbeSet 11739960_a_at) / Fold change (ACY-1035/veh), VPS36 (ProbeSet 11739960_a_at) / RFU SYPL1 (11715823_x_at) / Fold change /veh SYPL1 (11715823_x_at) / RFU IGFBP7 (11715501_s_at) / Fold change /veh IGFBP7 (11715501_s_at) / RFU REEP3 (11722064_at) / Fold change /veh REEP3 (11722064_at) / RFU IGLL1 (11728026_x_at) / Fold change /veh IGLL1 (11728026_x_at): dose or concentration left out as unconfirmed
Conditions: MV-4-11 cells, 48 hours

Nc1ccc(-c2cccs2)cc1NC(=O)c1ccc2c(c1)cc(C1CC1)n2CCN1CCOCC1 [ACY-1035]
RFU 11764193_at: 28.66 RFU
